The source made the active and inactive calls. The calls are words filed in the database; no cut-off is given here.
Columns and labels:
[1] = biological target: BDNF/NT-3 growth factors receptor (Homo sapiens) (UniProt Q16620); test: Inhibition of human TrkB assessed as remaining activity at 0.1 uM after 40 mins in presence of [gamma33P-ATP] by scintillation counting
[2] = Cytotoxicity against human PANC1 cells expressing K-ras G12D mutant assessed as reduction in cell viability after 96 hrs by CellTiter-Glo luminescence assay or methylene blue assay; assay type: functional, cell-based; conditions: PANC-1, 96 h
[3] = Cytotoxicity against human SK-MEL-2 cells expressing N-ras Q61R mutant assessed as reduction in cell viability after 96 hrs by CellTiter-Glo luminescence assay or methylene blue assay; assay type: functional, cell-based; conditions: SK-MEL-2, 96 h
[4] = Cytotoxicity against human SK-MEL-31 cells expressing B-RAF V600E mutant assessed as reduction in cell viability after 96 hrs by CellTiter-Glo luminescence assay or methylene blue assay; assay type: functional, cell-based
[5] = system: Receptor-type tyrosine-protein kinase FLT3 (Homo sapiens), P36888 [UNDEFINED MUTATION]; test: Inhibition of Flt-3 activation mutant phosphorylation in human MV4-11 cells after 24 hrs by Western blot analysis; assay type: cell-based
[6] = Cytotoxicity against human HCT116 cells expressing K-ras G13D mutant assessed as reduction in cell viability after 96 hrs by CellTiter-Glo luminescence assay or methylene blue assay; assay type: functional, cell-based; conditions: HCT-116, 96 h
[7] = Cytotoxicity against human MIAPaCa2 cells expressing K-ras G12C mutant assessed as reduction in cell viability after 96 hrs by CellTiter-Glo luminescence assay or methylene blue assay; assay type: functional, cell-based; conditions: MIA PaCa-2, 96 h
[8] = Cytotoxicity against human HT-29 cells expressing B-RAF V600E mutant assessed as reduction in cell viability after 96 hrs by CellTiter-Glo luminescence assay or methylene blue assay; assay type: functional, cell-based; conditions: HT-29, 96 h
[9] = biological target: Tyrosine-protein kinase Lck (Homo sapiens) (UniProt P06239); test: Inhibition of human Lck assessed as remaining activity at 1 uM after 40 mins in presence of [gamma33P-ATP] by scintillation counting
Tyrosine-protein kinase Lck (Homo sapiens), sequence (P06239 2-509 limits assumed): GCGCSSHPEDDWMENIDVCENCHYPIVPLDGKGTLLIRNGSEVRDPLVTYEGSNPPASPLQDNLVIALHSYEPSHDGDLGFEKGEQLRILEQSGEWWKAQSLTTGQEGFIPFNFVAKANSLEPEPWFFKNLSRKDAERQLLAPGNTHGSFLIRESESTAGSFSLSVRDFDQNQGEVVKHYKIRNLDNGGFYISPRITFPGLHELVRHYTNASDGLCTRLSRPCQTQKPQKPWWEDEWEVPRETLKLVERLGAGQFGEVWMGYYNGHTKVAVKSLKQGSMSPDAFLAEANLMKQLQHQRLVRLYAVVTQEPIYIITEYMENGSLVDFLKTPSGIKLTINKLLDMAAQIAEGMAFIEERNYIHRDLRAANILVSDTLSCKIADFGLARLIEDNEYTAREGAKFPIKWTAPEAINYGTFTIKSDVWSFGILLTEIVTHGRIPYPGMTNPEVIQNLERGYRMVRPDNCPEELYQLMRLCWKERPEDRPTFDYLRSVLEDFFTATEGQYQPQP

[10] = biological target: Tyrosine-protein kinase Lyn (Homo sapiens) (UniProt P07948); test: Inhibition of human Lyn assessed as remaining activity at 0.1 uM after 40 mins in presence of [gamma33P-ATP] by scintillation counting
Tyrosine-protein kinase Lyn (Homo sapiens), sequence (P07948 2-512 limits assumed): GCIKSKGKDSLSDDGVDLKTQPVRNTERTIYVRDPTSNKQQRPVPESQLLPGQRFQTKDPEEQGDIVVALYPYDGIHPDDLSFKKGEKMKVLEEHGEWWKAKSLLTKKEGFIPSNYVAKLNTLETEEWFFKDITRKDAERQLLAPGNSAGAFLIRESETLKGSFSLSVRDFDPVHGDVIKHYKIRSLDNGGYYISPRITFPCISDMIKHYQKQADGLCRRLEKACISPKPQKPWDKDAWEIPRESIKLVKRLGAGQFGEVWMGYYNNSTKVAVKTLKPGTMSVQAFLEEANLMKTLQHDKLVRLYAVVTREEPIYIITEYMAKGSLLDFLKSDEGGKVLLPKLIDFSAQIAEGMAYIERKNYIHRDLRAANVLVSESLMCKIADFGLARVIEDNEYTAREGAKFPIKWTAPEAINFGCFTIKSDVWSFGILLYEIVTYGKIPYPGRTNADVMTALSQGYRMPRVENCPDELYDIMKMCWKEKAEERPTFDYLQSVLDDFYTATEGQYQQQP

[11] = Cytotoxicity against human SW620 cells expressing K-ras G12V mutant assessed as reduction in cell viability after 96 hrs by CellTiter-Glo luminescence assay or methylene blue assay; assay type: functional, cell-based; conditions: SW-620, 96 h
[12] = Cytotoxicity against human AU565 cells assessed as reduction in cell viability after 96 hrs by CellTiter-Glo luminescence assay or methylene blue assay; assay type: functional, cell-based; conditions: AU565, 96 h
[13] = biological target: BDNF/NT-3 growth factors receptor (Homo sapiens) (UniProt Q16620); test: Inhibition of human TrkB assessed as remaining activity at 1 uM after 40 mins in presence of [gamma33P-ATP] by scintillation counting
[14] = Cytotoxicity against human SK-MEL-24 cells expressing B-RAF V600E mutant assessed as reduction in cell viability after 96 hrs by CellTiter-Glo luminescence assay or methylene blue assay; assay type: functional, cell-based; conditions: SK-MEL-24, 96 h
[15] = biological target: Tyrosine-protein kinase Fyn (Homo sapiens) (UniProt P06241); test: Inhibition of human Fyn assessed as remaining activity at 0.1 uM after 40 mins in presence of [gamma33P-ATP] by scintillation counting
Tyrosine-protein kinase Fyn (Homo sapiens), sequence (P06241 2-537 limits assumed): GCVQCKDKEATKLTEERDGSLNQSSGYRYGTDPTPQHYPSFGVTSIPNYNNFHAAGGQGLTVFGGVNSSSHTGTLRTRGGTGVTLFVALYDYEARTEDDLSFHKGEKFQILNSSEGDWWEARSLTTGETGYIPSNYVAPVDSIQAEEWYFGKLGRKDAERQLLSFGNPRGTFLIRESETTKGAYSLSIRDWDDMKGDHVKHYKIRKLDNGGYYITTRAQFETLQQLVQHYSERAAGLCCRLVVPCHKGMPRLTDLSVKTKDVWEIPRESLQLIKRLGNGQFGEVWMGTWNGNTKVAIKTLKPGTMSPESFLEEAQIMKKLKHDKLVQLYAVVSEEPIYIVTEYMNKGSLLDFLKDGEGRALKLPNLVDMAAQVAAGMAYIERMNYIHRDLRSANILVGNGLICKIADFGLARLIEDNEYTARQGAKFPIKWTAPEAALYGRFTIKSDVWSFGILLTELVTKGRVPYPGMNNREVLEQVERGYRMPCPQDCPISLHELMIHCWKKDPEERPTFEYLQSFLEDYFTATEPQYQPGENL

[16] = Cytotoxicity against human SK-MEL-3 cells expressing B-RAF V600E mutant assessed as reduction in cell viability after 96 hrs by CellTiter-Glo luminescence assay or methylene blue assay; assay type: functional, cell-based; conditions: SK-MEL3, 96 h
[17] = biological target: Tyrosine-protein kinase Yes (Homo sapiens) (UniProt P07947); test: Inhibition of human Yes assessed as remaining activity at 1 uM after 40 mins in presence of [gamma33P-ATP] by scintillation counting
Tyrosine-protein kinase Yes (Homo sapiens), sequence (P07947 2-543 limits assumed): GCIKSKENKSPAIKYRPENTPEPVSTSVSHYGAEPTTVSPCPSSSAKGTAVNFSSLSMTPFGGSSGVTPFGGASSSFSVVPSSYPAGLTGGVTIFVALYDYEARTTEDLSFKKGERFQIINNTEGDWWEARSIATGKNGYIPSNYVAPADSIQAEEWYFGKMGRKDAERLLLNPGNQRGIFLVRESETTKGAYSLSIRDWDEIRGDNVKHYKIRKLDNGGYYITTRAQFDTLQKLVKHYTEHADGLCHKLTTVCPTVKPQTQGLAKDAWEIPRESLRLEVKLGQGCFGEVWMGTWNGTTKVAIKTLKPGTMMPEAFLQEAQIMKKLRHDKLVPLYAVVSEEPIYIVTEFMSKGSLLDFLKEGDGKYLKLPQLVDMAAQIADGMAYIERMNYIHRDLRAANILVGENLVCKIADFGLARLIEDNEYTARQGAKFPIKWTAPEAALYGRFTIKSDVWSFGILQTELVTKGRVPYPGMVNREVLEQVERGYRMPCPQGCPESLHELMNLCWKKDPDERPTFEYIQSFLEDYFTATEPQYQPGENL

[18] = biological target: Tyrosine-protein kinase Lyn (Homo sapiens) (UniProt P07948); test: Inhibition of human Lyn assessed as remaining activity at 1 uM after 40 mins in presence of [gamma33P-ATP] by scintillation counting
[19] = Cytotoxicity against human MDA-MB-435 cells expressing B-RAF V600E mutant assessed as reduction in cell viability after 96 hrs by CellTiter-Glo luminescence assay or methylene blue assay; assay type: functional, cell-based; conditions: MDA-MB-435, 96 h
[20] = Antiproliferative activity against human K562 cells after 96 hrs by MTT assay; assay type: functional, cell-based; conditions: K562, 96 h
[21] = biological target: Tyrosine-protein kinase Fyn (Homo sapiens) (UniProt P06241); test: Inhibition of human Fyn assessed as remaining activity at 1 uM after 40 mins in presence of [gamma33P-ATP] by scintillation counting
[22] = Antiproliferative activity against human NALM6 cells after 96 hrs by MTT assay; assay type: functional, cell-based; conditions: NALM-6, 96 h
[23] = biological target: Tyrosine-protein kinase ABL1 (Homo sapiens) (UniProt P00519); test: Inhibition of human Abl assessed as remaining activity at 1 uM after 40 mins in presence of [gamma33P-ATP] by scintillation counting
Tyrosine-protein kinase ABL1 (Homo sapiens), sequence (P00519 whole entry): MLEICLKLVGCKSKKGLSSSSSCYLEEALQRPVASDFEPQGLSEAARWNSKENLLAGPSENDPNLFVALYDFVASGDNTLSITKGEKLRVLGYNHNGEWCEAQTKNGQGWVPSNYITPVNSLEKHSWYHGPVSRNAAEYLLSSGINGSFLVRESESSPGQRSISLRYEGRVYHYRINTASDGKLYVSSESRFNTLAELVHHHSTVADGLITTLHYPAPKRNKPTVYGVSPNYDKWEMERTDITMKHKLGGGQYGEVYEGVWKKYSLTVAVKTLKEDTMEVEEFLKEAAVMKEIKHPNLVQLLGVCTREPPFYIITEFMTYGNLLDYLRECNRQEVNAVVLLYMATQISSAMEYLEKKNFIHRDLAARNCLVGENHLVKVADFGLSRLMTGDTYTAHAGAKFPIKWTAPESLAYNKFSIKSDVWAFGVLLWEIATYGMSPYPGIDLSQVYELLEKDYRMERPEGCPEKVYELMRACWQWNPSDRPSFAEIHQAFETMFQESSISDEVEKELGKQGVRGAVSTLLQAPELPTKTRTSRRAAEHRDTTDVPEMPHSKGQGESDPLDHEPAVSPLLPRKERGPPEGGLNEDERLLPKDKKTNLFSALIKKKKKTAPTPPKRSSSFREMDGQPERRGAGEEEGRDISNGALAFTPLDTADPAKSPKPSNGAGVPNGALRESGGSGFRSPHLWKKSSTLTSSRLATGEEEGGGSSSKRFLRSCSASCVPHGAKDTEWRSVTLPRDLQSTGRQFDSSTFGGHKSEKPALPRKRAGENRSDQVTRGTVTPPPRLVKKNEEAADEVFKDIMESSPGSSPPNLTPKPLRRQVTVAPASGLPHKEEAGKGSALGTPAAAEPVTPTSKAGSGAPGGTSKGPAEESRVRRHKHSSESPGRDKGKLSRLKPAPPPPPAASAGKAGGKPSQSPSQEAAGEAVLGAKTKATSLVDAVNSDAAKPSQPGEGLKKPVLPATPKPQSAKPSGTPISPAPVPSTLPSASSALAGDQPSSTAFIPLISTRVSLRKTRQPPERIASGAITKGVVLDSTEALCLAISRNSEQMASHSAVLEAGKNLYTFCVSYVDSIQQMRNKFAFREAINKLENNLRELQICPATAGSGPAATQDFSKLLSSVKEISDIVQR

[24] = Cytotoxicity against human MCF7 cells assessed as reduction in cell viability after 96 hrs by CellTiter-Glo luminescence assay or methylene blue assay; assay type: functional, cell-based; conditions: MCF7, 96 h
[25] = Cytotoxicity against human DLD1 cells expressing K-ras G13D mutant assessed as reduction in cell viability after 96 hrs by CellTiter-Glo luminescence assay or methylene blue assay; assay type: functional, cell-based; conditions: DLD-1, 96 h
[26] = biological target: Proto-oncogene tyrosine-protein kinase Src (Homo sapiens) (UniProt P12931); test: Inhibition of human c-Src assessed as remaining activity at 0.1 uM after 40 mins in presence of [gamma33P-ATP] by scintillation counting
Proto-oncogene tyrosine-protein kinase Src (Homo sapiens), sequence (P12931 2-536 limits assumed): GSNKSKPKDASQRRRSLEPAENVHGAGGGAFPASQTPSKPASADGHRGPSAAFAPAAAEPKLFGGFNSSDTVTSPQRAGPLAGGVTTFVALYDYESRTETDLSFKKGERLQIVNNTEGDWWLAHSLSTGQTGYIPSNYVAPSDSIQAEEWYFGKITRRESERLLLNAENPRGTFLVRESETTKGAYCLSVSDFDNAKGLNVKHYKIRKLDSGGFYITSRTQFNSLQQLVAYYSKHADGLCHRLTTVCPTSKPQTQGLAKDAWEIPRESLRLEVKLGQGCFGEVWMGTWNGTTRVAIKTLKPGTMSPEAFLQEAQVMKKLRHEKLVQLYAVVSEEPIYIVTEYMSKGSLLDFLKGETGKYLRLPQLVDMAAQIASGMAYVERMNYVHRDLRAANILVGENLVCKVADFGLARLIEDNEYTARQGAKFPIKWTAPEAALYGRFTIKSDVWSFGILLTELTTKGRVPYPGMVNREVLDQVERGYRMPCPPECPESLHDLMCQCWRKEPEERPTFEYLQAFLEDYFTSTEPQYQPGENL

[27] = Cytotoxicity against human MDA-MB-231 cells expressing K-ras G13D mutant assessed as reduction in cell viability after 96 hrs by CellTiter-Glo luminescence assay or methylene blue assay; assay type: functional, cell-based; conditions: MDA-MB-231, 96 h
[28] = Antiproliferative activity against human RPMI8226 cells after 96 hrs by MTT assay; assay type: functional, cell-based; conditions: RPMI-8226, 96 h
[29] = biological target: Tyrosine-protein kinase Yes (Homo sapiens) (UniProt P07947); test: Inhibition of human Yes assessed as remaining activity at 0.1 uM after 40 mins in presence of [gamma33P-ATP] by scintillation counting
[30] = biological target: Tyrosine-protein kinase Lck (Homo sapiens) (UniProt P06239); test: Inhibition of human Lck assessed as remaining activity at 0.1 uM after 40 mins in presence of [gamma33P-ATP] by scintillation counting
[31] = Cytotoxicity against human LoVo cells expressing K-ras G13D mutant assessed as reduction in cell viability after 96 hrs by CellTiter-Glo luminescence assay or methylene blue assay; assay type: functional, cell-based
LOX = test: Antitumor activity against human LOX cells expressing B-RAF V600E mutant xenografted in athymic mouse assessed as tumor regression at 10 to 40 mg/kg, iv administered for two weekly rounds of five injections daily with two-day rest period between the rounds measured twice weekly from first day of treatment; assay type: functional, organism-based
[32] = Cytotoxicity against human DU4475 cells expressing B-RAF V600E mutant assessed as reduction in cell viability after 96 hrs by CellTiter-Glo luminescence assay or methylene blue assay; assay type: functional, cell-based; conditions: DU-4475, 96 h
[33] = Antiproliferative activity against human THP1 cells after 96 hrs by MTT assay; assay type: functional, cell-based; conditions: THP-1, 96 h

BDNF/NT-3 growth factors receptor (Homo sapiens), sequence (Q16620 32-822 limits assumed): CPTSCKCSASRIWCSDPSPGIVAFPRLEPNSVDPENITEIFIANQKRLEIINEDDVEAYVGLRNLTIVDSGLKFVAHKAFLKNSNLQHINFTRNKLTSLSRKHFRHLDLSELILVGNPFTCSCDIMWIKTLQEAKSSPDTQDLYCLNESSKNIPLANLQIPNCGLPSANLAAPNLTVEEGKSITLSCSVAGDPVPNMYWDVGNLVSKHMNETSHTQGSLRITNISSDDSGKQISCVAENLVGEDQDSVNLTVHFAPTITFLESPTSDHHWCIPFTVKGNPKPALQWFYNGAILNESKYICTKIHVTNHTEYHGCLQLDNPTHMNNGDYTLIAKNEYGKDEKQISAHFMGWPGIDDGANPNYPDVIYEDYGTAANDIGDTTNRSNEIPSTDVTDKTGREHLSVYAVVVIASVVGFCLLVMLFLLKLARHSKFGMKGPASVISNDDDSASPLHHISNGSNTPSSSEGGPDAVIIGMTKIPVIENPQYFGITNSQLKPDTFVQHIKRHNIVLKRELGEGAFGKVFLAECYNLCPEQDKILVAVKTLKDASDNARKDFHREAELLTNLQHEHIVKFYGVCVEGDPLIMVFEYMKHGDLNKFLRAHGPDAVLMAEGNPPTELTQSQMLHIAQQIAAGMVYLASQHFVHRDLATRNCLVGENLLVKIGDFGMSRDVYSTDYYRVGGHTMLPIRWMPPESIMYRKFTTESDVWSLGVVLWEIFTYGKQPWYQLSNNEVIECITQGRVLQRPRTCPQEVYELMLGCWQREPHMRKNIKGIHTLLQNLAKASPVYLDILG

Question: For `CCNc1cc(O)c2c(c1)/C=C/C[C@H](O)[C@H](O)C(=O)/C=C\[C@@H](C)[C@H](C)OC2=O` [E-6201], which Activity [1] is on record?
Answer: 24%

Question: What about the IC50 [2] of the same molecule?
Answer: > 10000 nM

Question: And the IC50 [3]?
Answer: 135 nM

Question: And the IC50 [4]?
Answer: 225 nM

Question: What about the inhibition [5] of the same molecule?
Answer: Dose-dependent effect

Question: What about the IC50 [6] of the same molecule?
Answer: 423 nM

Question: And the IC50 [7]?
Answer: 734 nM

Question: What about the IC50 [8] of the same molecule?
Answer: 84 nM

Question: What about the Activity [9] of the same molecule?
Answer: 0%

Question: And the Activity [10]?
Answer: 45%

Question: What about the IC50 [11] of the same molecule?
Answer: 282 nM

Question: And the IC50 [12]?
Answer: > 10000 nM

Question: What about the Activity [13] of the same molecule?
Answer: 4%

Question: And the IC50 [14]?
Answer: 66 nM

Question: What about the Activity [15] of the same molecule?
Answer: 24%

Question: What about the IC50 [16] of the same molecule?
Answer: 24 nM

Question: What about the Activity [17] of the same molecule?
Answer: 8%

Question: What about the Activity [18] of the same molecule?
Answer: 2%

Question: What about the IC50 [19] of the same molecule?
Answer: 71 nM

Question: And the IC50 [20]?
Answer: 1800 nM

Question: What about the Activity [21] of the same molecule?
Answer: 0%

Question: And the IC50 [22]?
Answer: 620 nM

Question: What about the Activity [23] of the same molecule?
Answer: 15%

Question: And the IC50 [24]?
Answer: > 10000 nM

Question: And the IC50 [25]?
Answer: 649 nM

Question: And the Activity [26]?
Answer: 31%

Question: What about the IC50 [27] of the same molecule?
Answer: 156 nM

Question: What about the IC50 [28] of the same molecule?
Answer: > 7050 nM

Question: And the Activity [29]?
Answer: 54%

Question: And the Activity [30]?
Answer: 27%

Question: And the IC50 [31]?
Answer: 132 nM

Question: What about the Activity (LOX) of the same molecule?
Answer: Active

Question: And the IC50 [32]?
Answer: 52 nM

Question: And the IC50 [33]?
Answer: 120 nM

From ChEMBL document CHEMBL3880411, “Multikinase inhibitors for use in the treatment of cancer” (2009)
